Consider 2 molecules from patent publication US20020172694A1, “Extended release formulation of diltiazem hydrochloride” (DOV Pharmaceutical, Inc., priority 2001, published 2002).

For data set [1] the following is noted: single oral dose, healthy individual, FIG. 6.
Description: One hundred twenty milligrams (120 mg) of diltiazem hydrochloride powder were combined with a 360 mg dose of DILTIAZEM OD ER. […] Consequently, this mixture contained approximately 25 percent by weight of a quick release preparation of diltiazem, and approximately 75 percent by weight of a slow release preparation of diltiazem, based upon the percentage of diltiazem in the final mixture.
The resulting mixture was then encapsulated in a larger gelatin capsule and orally administered to a healthy individual, taking no medications which would affect diltiazem plasma levels or interfere with their proper determination. Controls containing either 120 mg diltiazem hydrochloride or 360 mg Diltiazem ER were administered separately. An interval of approximately 5-7 days elapsed between the administration of each agent tested in this example.
An intravenous blood sample was withdrawn into pre-cooled, commercially available [sequence] (TM) containing EDTA (ethylenediamine tetraacetic acid) as an anticoagulant Just before administration of the test agent; this sample represented the zero time sample. The blood sample was centrifuged for 15 minutes under conditions known to those skilled in the art. […] The plasma levels of diltiazem were determined by HPLC (High Performance Liquid Chromatography) analysis according to the method of Eradiri (36).
For data set [2] the following is noted: in vivo; cited from earlier work.
The test system of another data set is angina pectoris. The following applies: cited from earlier work.

Where a name gives a salt, the structure may show the parent alone.

Consider `COc1ccc([C@@H]2Sc3ccccc3N(CCN(C)C)C(=O)[C@@H]2OC(C)=O)cc1` [diltiazem hydrochloride], for which, in data set [1], the “time after administration by which most of the preparation is gone” value is 5 to 6 h and the “time to peak plasma levels of diltiazem after administration” value was 1 to 2 h.

In the case of `COc1ccc([C@@H]2Sc3ccccc3N(CCN(C)C)C(=O)[C@@H]2OC(C)=O)cc1` [diltiazem, 25-cis-3-(Acetoxyl)-5-[2-(dimethylamino)ethyl]-2-3-dihydro-2-(4-methoxyphenyl)-1,5-benzothiazepin-4(5H)-one], the plasma half-life in data set [2] was 2 to 6 h. Further, the “incidence of side effects versus other calcium channel blockers” value in the data set with angina pectoris (comparative studies) is recorded as “lower incidence of side effects”. Also, in the data set on angina pectoris (in vivo), the “efficacy versus beta-adrenergic receptor blockers, nitrates and verapamil” value is “equivalent”; the efficacy versus nifedipine result was “more effective”.
